Experimental data from patent US6723830B2, “Short peptides which selectively modulate the activity of protein kinases” (Children's Medical Center Corporation, priority 1998, dated 2004).
* marks the point of attachment. Myristoyl = CCCCCCCCCCCCCC(=O)*

Key:
[1] = Appetite suppression: food intake and body weight in mice; assay type: in vivo; settings: C57BL mice
Experimental: Male CB6F1 or C57BL mice (Harlan), about 2-4 months old, were fed a pelleted rodent maintenance diet (Koffolk, Tel Aviv, Israel, 19520). The food containers for each group were weighed daily and the average food consumption was calculated per mouse per day.
During the experimental period, the mice were injected intraperitoneally once a day for two consecutive days, 4 mg/mouse, with K085D102 (a Jak2-derived peptide from the αD region) solubilized in 10% DMSO in PBS+0.1% BSA in a volume of 0.2 ml. The control groups were injected with 0.2 ml of the vehicle only.
FIGS. 4 and 5 illustrate the results obtained with CB6F1 mice while Table II summarizes the results obtained with C57BL mice.

B16 melanoma cells = assay: Induction of melanogenesis in B16 melanoma cells, observed by eye; assay type: cell-based, mouse; settings: 5 days incubation; increase in black pigment seen by eye; FIG. 7
Experimental: B16 melanoma cells (a mouse tumor cell line) were cultured in a 24-well plate, 10^5 cells/well, in the presence of various concentrations of K085D102, a Jak2-derived peptide from the αD region. After 5 days incubation in DMEM+10% fetal calf serum under standard conditions, the plate was observed by eye for melanogenesis. Melanogenesis induction was visualized by an increase in the amount of the black pigment in the well. The results are illustrated in FIG. 7 and clearly show a dose response down to a concentration as low as 0.15 μM of the Jak2 peptide of the αD region present in the well.

[2] = tested on: Human endothelial cells (HEC cells); assay: Proliferation of human endothelial cells (methylene blue cell count); assay type: cell-based; settings: concentration at which significant inhibition of cell proliferation was observed; 72-80 hours incubation
Experimental: (§1) Human endothelial cells (referred to herein as “HEC cells”) are the cell line described by Schweitzer et al., Laboratory Investigation 76(1):25 (1997). Human prostate cancer cells (PC3) were obtained by the procedures disclosed in Arbiser et al., Proc. Natl. Acad. Sci. 94:861 (1997), the teachings of which are incorporated herein by reference.
(§2) 96 well, flat bottom, tissue culture microtiter plates were pre-coated with gelatin (Difco) immediately prior to cell plating by adding 0.100 ml/well of freshly filtered 1% gelatin in glass double distilled water (DDW). The wells were incubated for about 1 hour at 37° C., and then the excess solution was removed by aspiration.
(§3) Culture medium was prepared from DMEM, penicillin/streptomycin/glutamine (penicillin—100 U/ml; streptomycin—100 μμg/mL; and glutamine—2 mM) and 10% endotoxin free bovine calf serum (Hyclone). A suspension of the cell type being tested at 25×10^3 cells/ml was prepared in the above described culture medium and distributed 0.160 ml/well (about 4000 endothelial cells/well).
(§4) A series of αD peptide stock solutions was prepared by diluting a 10 mM solution of the αD peptide in 100% DMSO with phosphate buffered saline (PBS) containing 0.1% BSA. […]
(§5) The wells were washed one time with borate buffer (0.1 M, pH 8.5). […] After extracting overnight, the O.D. was read at 630 nm to determine the number of cells per well. […]

[3] = tested on: Human prostate cancer cells (PC3); assay: Proliferation of human prostate cancer cells PC3 (methylene blue cell count); assay type: cell-based; settings: concentration at which significant inhibition of cell proliferation was observed; 72-80 hours incubation
Experimental: as §1, §2, §3, §4, §5

CD4+ T cells = assay: Th1/Th2 bioassay: IL-4 and IFNγ secretion by ELISA; assay type: cell-based, Balb/c mice; settings: CD4+ T cells incubated 5 days with 0.4, 2 or 10 μM peptide; 24 hour re-stimulation; FIG. 6
Experimental: 0.5×10^6 small resting CD4+ T cells were isolated from lymph nodes of 8 week-old Balb/c mice. These CD4+ T cells were incubated for 5 days in 2 ml culture medium in 24 well plates coated with anti-CD3 and anti-CD28 antibodies: (5 μg/ml and 2 μg/ml, respectively). 0.4, 2 or 10 μM Jak-derived peptides, initially in 10 μl DMSO, were present in the medium during the 5 day activation period. Control wells contained 10 μl of DMSO (the solvent of the peptide).
At the end of the 5 day stimulation period, the medium was replaced with fresh medium containing 10 u/ml IL-2 and the cells were removed from the antibody-coated wells to uncoated wells for a 3 day “rest” and expansion period. Under these stimulating and rest conditions, the differentiation process led to the acquisition of Th2 phenotype (high IL-4 and low IFNγ production upon secondary challenge).
At the end of the rest period, the cells were removed, washed and counted. 0.5×10^6 cells were re-stimulated in 1 ml of culture medium by incubation for 24 hours on anti-CD3-+anti-CD28-coated 24 well plates. At the end of the 24 hour re-stimulation period, the supernatant was removed and the level of secreted IL-4 and IFNγ was determined by ELISA. The results were expressed as u/ml or pg/ml of IL-4 and IFNγ respectively, which were secreted into the culture medium by 0.5×10^6 cells during the re-stimulation period.

fresh adipocytes = assay: Glucose uptake (3H-deoxy glucose) by adipose tissue cells; assay type: cell-based, rats; settings: 10 μM peptide
Experimental: To 3 ml of buffer with 10 mg collagenase, 3 g epididymal fat pad (from 2-3 male rats) was introduced. The fat was cut up with scissors. The pieces of fat were swirled and shaken in a 37° C. water bath set at 100-150 repetitions/minute for approximately 1 hour with swirling every 15 minutes while digesting and every 5 minutes towards the end. About 6 ml of buffer was added to the vial.
A 250μ nylon mesh over the top was secured with a rubber band and the contents of the container were gently squeezed into a 50 ml plastic tube. The total volume for each wash was 15 ml.
The tube was centrifuged. The adipose cells floated to the top of the liquid. The buffer was removed using a 35 ml metal-tipped syringe with a needle. Buffer was added to 15 ml and the clumps of cells were gently broken up by mixing up and down in the syringe. This process was repeated for a total of 4 centrifugations at 1000 with the last centrifugation at 2000 rpm. At this point, any fat was removed from the top of the cells.
Buffer and dilute cell suspension with buffer were removed to cytocrit of 5-10%. The cells were kept at 37° C. for 1 hour.
500 μl buffer was added with or without additives (insulin 10-10,000 μU/ml, peptides 0.1-10 μM) to 10 ml plastic tubes.
500 μl aliquots of the cell suspension were added to the tubes.
After incubation for 30 minutes at 37° C. in a shaking water bath (approximately 300 strokes/minute), 200 μl of buffer containing 3H—Deoxy Glucose (approx. 1200 cpm/μl) was added to each tube.
After 30 minutes incubation with 3H-DOG at 37° C., 200 μl aliquots were transferred to microcentrifuge tubes containing 200 μl Dinonyl phthalate. Cells were rapidly separated from the aqueous buffer by centrifugation at 10,000 g for 30-60 sec. Cells separated in the top layer from the aqueous buffer by Dinonyl phthalate.
Cell associated radioactivity was counted in a liquid scintillation counter.
Glucose-uptake was measured in fresh adipocytes, incubated with or without insulin (10 μU) as described above, in the absence (control) or the presence of 10 μM of peptide K094D101 (derived from the αD region of IRK).

[4] = 4 mg/mouse intraperitoneally once a day for two consecutive days, treatment day 1
[5] = 4 mg/mouse intraperitoneally once a day for two consecutive days, treatment day 2
[6] = recovery after two days of treatment

In the case of “K085D102: a Jak2-derived peptide from the αD region, SEQ ID NO:143 (GLRDYLQKHKERI), N-myristylated, C-amidated (Myristoyl-GLRDYLQKHKERI-NH2; SMILES CCCCCCCCCCCCCC(=O)NCC(=O)N[C@@H](CC(C)C)C(=O)N[C@@H](CCCNC(=N)N)C(=O)N[C@@H](CC(=O)O)C(=O)N[C@@H](Cc1ccc(O)cc1)C(=O)N[C@@H](CC(C)C)C(=O)N[C@@H](CCC(N)=O)C(=O)N[C@@H](CCCCN)C(=O)N[C@@H](Cc1c[nH]cn1)C(=O)N[C@@H](CCCCN)C(=O)N[C@@H](CCC(=O)O)C(=O)N[C@@H](CCCNC(=N)N)C(=O)N[C@H](C(N)=O)[C@@H](C)CC)”, the “% change in body wt. (relative to day 0), treatment day 1” value [1, 4] is reported as 94%, the “Food Intake (g/mouse/day), treatment day 1” value [1, 4] is reported as 0.24 g/mouse/day and the “% change in body wt. (relative to day 0), treatment day 2” value [1, 5] is reported as 95%. For the same substance, the “Food Intake (g/mouse/day), treatment day 2” value [1, 5] was 1.43 g/mouse/day, the “Food Intake (g/mouse/day), baseline” value ([1]; baseline before treatment) was 3.16 g/mouse/day and the “% change in body wt. (relative to day 0), day 0” value ([1]; day 0 (reference)) was 100%. For the same substance, the “% change in body wt. (relative to day 0), recovery” value [1, 6] was 97%, the “Food Intake (g/mouse/day), recovery” value [1, 6] was 3.62 g/mouse/day and the “Melanogenesis induction: lowest concentration showing dose response” value (B16 melanoma cells) was 0.15 µM.
In the case of “K086D101: Jak3 αD region peptide, SEQ ID NO:145 (GMEYLPSGSLRDFLQRHRAL), N-myristylated, C-amidated (Myristoyl-GMEYLPSGSLRDFLQRHRAL-NH2; SMILES CCCCCCCCCCCCCC(=O)NCC(=O)N[C@@H](CCSC)C(=O)N[C@@H](CCC(=O)O)C(=O)N[C@@H](Cc1ccc(O)cc1)C(=O)N[C@@H](CC(C)C)C(=O)N1CCC[C@H]1C(=O)N[C@@H](CO)C(=O)NCC(=O)N[C@@H](CO)C(=O)N[C@@H](CC(C)C)C(=O)N[C@@H](CCCNC(=N)N)C(=O)N[C@@H](CC(=O)O)C(=O)N[C@@H](Cc1ccccc1)C(=O)N[C@@H](CC(C)C)C(=O)N[C@@H](CCC(N)=O)C(=O)N[C@@H](CCCNC(=N)N)C(=O)N[C@@H](Cc1c[nH]cn1)C(=O)N[C@@H](CCCNC(=N)N)C(=O)N[C@@H](C)C(=O)N[C@@H](CC(C)C)C(N)=O)”, the “S.I.* (μM) for HEC Cells” value [2] is reported as 0.6 µM and the “S.I.* (μM) for PC3 Cells” value [3] is reported as 0.6 µM.
With “K086D102: Jak3 peptide derived from the αD region, SEQ ID NO:146 (GMEYLPSGSLRDFLQRHRARL), N-myristylated, C-amidated (Myristoyl-GMEYLPSGSLRDFLQRHRARL-NH2; SMILES CCCCCCCCCCCCCC(=O)NCC(=O)N[C@@H](CCSC)C(=O)N[C@@H](CCC(=O)O)C(=O)N[C@@H](Cc1ccc(O)cc1)C(=O)N[C@@H](CC(C)C)C(=O)N1CCC[C@H]1C(=O)N[C@@H](CO)C(=O)NCC(=O)N[C@@H](CO)C(=O)N[C@@H](CC(C)C)C(=O)N[C@@H](CCCNC(=N)N)C(=O)N[C@@H](CC(=O)O)C(=O)N[C@@H](Cc1ccccc1)C(=O)N[C@@H](CC(C)C)C(=O)N[C@@H](CCC(N)=O)C(=O)N[C@@H](CCCNC(=N)N)C(=O)N[C@@H](Cc1c[nH]cn1)C(=O)N[C@@H](CCCNC(=N)N)C(=O)N[C@@H](C)C(=O)N[C@@H](CCCNC(=N)N)C(=O)N[C@@H](CC(C)C)C(N)=O)” the “IFNγ production (Th1 conversion)” value (CD4+ T cells) was “increase” and the “IL-4 production (Th1 conversion)” value (CD4+ T cells) was “decrease”.
In the case of “K094D101: peptide derived from the αD region of IRK; SEQ ID NO:137 by list order, possibly SEQ ID NO:136 (myristylated) (Myristoyl-AQNNPGRPPPTL-NH2; SMILES CCCCCCCCCCCCCC(=O)N[C@@H](C)C(=O)N[C@@H](CCC(N)=O)C(=O)N[C@@H](CC(N)=O)C(=O)N[C@@H](CC(N)=O)C(=O)N1CCC[C@H]1C(=O)NCC(=O)N[C@@H](CCCNC(=N)N)C(=O)N1CCC[C@H]1C(=O)N1CCC[C@H]1C(=O)N1CCC[C@H]1C(=O)N[C@H](C(=O)N[C@@H](CC(C)C)C(N)=O)[C@@H](C)O)”, the “Glucose uptake, % of Control, +Insulin 10 μU/ml” value (fresh adipocytes; insulin 10 μU/ml) is reported as 67&, the “Glucose-Update: Mean DPM ± SEM of Quadruplicates, +Insulin 10 μU/ml” value (fresh adipocytes; insulin 10 μU/ml) is reported as 1,210 ± 110 DPM and the “Glucose uptake, % of Control, −Insulin” value (fresh adipocytes; without insulin) is reported as 67%. The “Glucose-Update: Mean DPM ± SEM of Quadruplicates, −Insulin” value (fresh adipocytes; without insulin) was 775 ± 72 DPM.
